≈ marks a conversion by molar mass, not a printed value.
Tests used:
[1] = test system: HL-60; assay: Growth inhibition of human HL60 cells after 48 hrs by sulforhodamine B assay; format: functional; conditions: HL-60, 48 h
[2] = Growth inhibition of human A375-C5 cells after 48 hrs by sulforhodamine B assay; format: functional; conditions: A375-C5, 48 h
[3] = test system: NCI-H460; assay: Growth inhibition of human NCI-H460 cells after 48 hrs by sulforhodamine B assay; format: functional; conditions: NCI-H460, 48 h
[4] = test system: MCF7; assay: Growth inhibition of human MCF7 cells after 48 hrs by sulforhodamine B assay; format: functional; conditions: MCF7, 48 h
[5] = Thermodynamic solubility of the compound after 24 hrs at pH 7.4 by spectrophotometric analysis; format: physicochemical; conditions: buffer, read-out: Therm_solubility
[6] = Micelles-buffer partition coefficient, log K of the compound after 30 mins at pH 7.4 by UV-vis spectrophotometric analysis; format: physicochemical; conditions: pH 7.4, 0.5 h
[7] = Liposomes-buffer partition coefficient, log K of the compound after 30 mins at pH 7.4 by UV-vis spectrophotometric analysis; format: physicochemical; conditions: artificial membrane, pH 7.4, 0.5 h
[8] = test system: HL-60; assay: Cytotoxicity against human HL60 cells after 24 to 72 hrs by trypan blue exclusion assay; format: functional, cell-based

SMILES	GI50 [1] [µM]	GI50 [3] [µM]	GI50 [4] [µM]	solubility thermodynamic at 24 h [5] [µM]	log K [6]	log K [7]	GI50 [2] [µM]	IC50 [8] [µM]
COc1cccc2c1C(=O)c1c(O)c3c(c(O)c1C2=O)C[C@@](O)(C(=O)CO)C[C@@H]3O[C@H]1C[C@H](N)[C@H](O)[C@H](C)O1 [DOXORUBICIN]	0.028	0.0641	0.0654	–	–	–	0.145	–
CC1(C)CCc2cc3c(=O)c4cc(Cl)ccc4oc3c(O)c2O1	9	> 150	> 150	< 0.1	4.39	–	> 150	–
CCN(CC)c1ccc2c(=O)c3cc4c(c(OC)c3oc2c1)C=CC(C)(C)O4	9.2	26.8	34.3	–	–	–	21.9	–
COc1c2c(cc3c(=O)c4cc(Cl)ccc4oc13)OC(C)(C)C=C2	14.1	> 150	> 150	–	4.34	–	> 150	–
COc1cc2oc3c(OC)c4c(cc3c(=O)c2cc1OC)OC(C)(C)CC4	–	> 75	> 75	–	3.83	3.88	> 75	–
COc1c2c(cc3c(=O)c4cc(Cl)ccc4oc13)OC(C)(C)CC2	48.4	> 75	> 75	–	4.41	4.48	> 75	–
CCN(CC)c1ccc2c(=O)c3cc4c(c(OC)c3oc2c1)CCC(C)(C)O4	14.4	13.7	14.5	–	4.7	4.62	19.6	–
CC1(C)CCc2cc3c(=O)c4ccccc4oc3c(O)c2O1 [DIHYDRO-12-HYDROXY-2,2-DIMETHYL-2H,6H-PYRANO[3,2-B]XANTHEN-6-ONE]	23.4	40.3	39.7	0.4 (≈ 0.119 µg/mL)	3.28	3.35	28.9	6
COc1c2c(cc3c(=O)c4cc(C)ccc4oc13)OC(C)(C)C=C2	> 50	> 50	> 50	–	4.29	4.32	> 50	–
COc1ccc2oc3c(OC)c4c(cc3c(=O)c2c1)OC(C)(C)C=C4	–	> 150	> 150	–	4.21	–	> 150	–

More lines, main results first:

GI50 [1] [µM]	GI50 [3] [µM]	GI50 [4] [µM]	solubility thermodynamic at 24 h [5] [µM]	log K [6]	log K [7]	SMILES	GI50 [2] [µM]	IC50 [8] [µM]
8.8	> 150	> 150	–	3.59	3.6	COc1c2c(cc3c(=O)c4ccccc4oc13)CCC(C)(C)O2	> 150	–
57	59.1	82.5	0.62 (≈ 0.194 µg/mL)	3.76	3.32	CC1(C)CCc2cc3c(=O)c4ccc(O)cc4oc3c(O)c2O1	40.7	–
27.3	41.1	–	0.23 (≈ 0.0751 µg/mL)	3.58	3.53	COc1cccc2c(=O)c3cc4c(c(O)c3oc12)OC(C)(C)CC4	68	–
12.5	48.1	> 150	< 0.1	3.92	3.86	Cc1ccc2oc3c(O)c4c(cc3c(=O)c2c1)CCC(C)(C)O4	17.6	–
5.14	30.9	31.8	–	4.01	4.02	COc1c2c(cc3c(=O)c4cc(C)ccc4oc13)CCC(C)(C)O2	29.7	–
72.3	> 100	> 100	–	3.88	–	COc1cc2oc3c(OC)c4c(cc3c(=O)c2cc1OC)CCC(C)(C)O4	> 100	–
23.9	> 150	> 150	< 0.1	3.35	3.25	COc1ccc2oc3c(O)c4c(cc3c(=O)c2c1)CCC(C)(C)O4	> 150	–
8.3	> 150	> 150	–	3.49	3.43	COc1c2c(cc3c(=O)c4ccc(O)cc4oc13)CCC(C)(C)O2	> 150	–
18.8	34.9	36.9	–	3.9	–	COc1c2c(cc3c(=O)c4ccc(O)cc4oc13)OC(C)(C)C=C2	27.1	–

From ChEMBL document CHEMBL2384993, “Multidimensional optimization of promising antitumor xanthone derivatives” (Bioorg Med Chem, 2013)
